Results from paper PMC7059089, “Bioguided Isolation and Structure Identification of Acetylcholinesterase Enzyme Inhibitors from Drynariae Rhizome” (Journal of Analytical Methods in Chemistry, 2020).

Target: T1, AChE (acetylcholinesterase) (Electrophorus electricus, UniProt O42275)
T1 construct: obtained from the head of an electric eel; purchased Shanghai Source Biotech Co. Ltd. (Shanghai, China); host or cells: electric eel tissue (head)
Experiment: biochemical
Conditions: UPLC-MS/MS assay, ACh-I substrate, 37°C, 25 min, pH 8.0, n = 6, ± SD; read-out: IC50 against AChE
Source text: AChE (acetylcholinesterase, obtained from the head of an electric eel, 500 U), iodized acetylcholine (ACh-I, purity > 98.0%), iodized choline (Ch-I, purity > 98.0%), and Tris-HCl buffer (1 mol/L, pH 8.0) were all purchased from Shanghai Source Biotech Co. Ltd. (Shanghai, China). […] UPLC-grade acetonitrile was obtained from Fisher (Fair Lawn, NJ, USA). Water was purified by redistillation and a Milli-Q® ultrapure water system (Millipore, Bedford, MA, USA). Other chemicals and solvents used were of analytical grade.
AChE inhibition activities of the analytes were determined in vitro by monitoring the transformation from a substrate (ACh-I) to the product (Ch-I) catalyzed AChE, and Ch-I was quantified with UPLC-MS/MS to access the AChE activity. The reaction was conducted in a 100 μL mixture, consisting of 50 μL AChE solution (0.5 U/mL), 45 μL ACh-I solution (400 μg/mL), and 5 μL tested sample or blank Tris solution which were all dissolved in Tris buffer (pH 8.0). The mixture was incubated at 37°C in a thermostatic water bath for 25 min and then terminated by 500 μL acetonitrile at 0°C immediately. The terminal solution was centrifuged at 20,000g for 15 min, and the supernatant was used for UPLC-MS/MS analysis.
The […] inhibition was calculated as follows:(1) inhibition %=Cb−Cs/Cb∗100%. where Cb means the Ch-I concentration incubated without AChE inhibitor and Cs means the Ch-I concentration incubated with inhibitor. The inhibitory activities of the AChE inhibitors were assessed by the IC50 values of tested compounds. Galanthamine was selected as a positive control.
Liquid chromatography analysis was accomplished on an ACQUITY UPLC™ system (Waters Corp., Milford, MA, USA). The chromatographic separation was carried out using an ACQUITY UPLCTM BEH C18 column (2.1 × 50 mm, 1.7 μm) at 30°C. The isocratic elution mobile phase consisted of 0.5% acetic acid (A) and acetonitrile (B) (40 : 60) to guarantee the peak shape of Ch-I.
A Waters® Micromass® Quattro Premier™ XE triple-quadrupole tandem mass spectrometer equipped with an electrospray ionization interface (TQ-ESI) was used for mass spectrometric detection. The positive ESI source operation optimal parameters were capillary voltage 3.0 kV, extractor voltage 3.00 V, skimmer 25.0 V, fragmentor 35 V, octopole Rf peak 3000 v, source temperature 120°C, and desolvation temperature 300°C. Nitrogen was used as the desolvation gas and cone gas at a flow of 600 L/h and 50 L/h, respectively. Argon was used as the collision gas at a pressure of approximately 2.61 × 10^−3 mbar. A multiple reaction monitoring (MRM) mode was used to quantify Ch-I, and the fragments of 104.34 Th and 58.53 Th were selected as the parent ion and daughter ion to obtain accurate quantitation in the mixture containing herb extract. The MS scan rate spectrum was 5000 amu/s, dwell time 5 ms, and m/z range 0–300 Th. All data were acquired and analyzed by Mass Lynx™ NT 4.1 software with the Quan Lynx™ program (Waters, Milford, MA, USA).
The reaction procedure was conducted with reference to Liu's report; moreover, the enzyme constants, steady-state kinetics, reaction temperature, reaction time, substrate concentration, and AChE concentration were investigated and optimized to guarantee the utilization. […] The concentration of AChE in Liu's report was 3.470 U/mL.

T1 sequence (O42275 24-633): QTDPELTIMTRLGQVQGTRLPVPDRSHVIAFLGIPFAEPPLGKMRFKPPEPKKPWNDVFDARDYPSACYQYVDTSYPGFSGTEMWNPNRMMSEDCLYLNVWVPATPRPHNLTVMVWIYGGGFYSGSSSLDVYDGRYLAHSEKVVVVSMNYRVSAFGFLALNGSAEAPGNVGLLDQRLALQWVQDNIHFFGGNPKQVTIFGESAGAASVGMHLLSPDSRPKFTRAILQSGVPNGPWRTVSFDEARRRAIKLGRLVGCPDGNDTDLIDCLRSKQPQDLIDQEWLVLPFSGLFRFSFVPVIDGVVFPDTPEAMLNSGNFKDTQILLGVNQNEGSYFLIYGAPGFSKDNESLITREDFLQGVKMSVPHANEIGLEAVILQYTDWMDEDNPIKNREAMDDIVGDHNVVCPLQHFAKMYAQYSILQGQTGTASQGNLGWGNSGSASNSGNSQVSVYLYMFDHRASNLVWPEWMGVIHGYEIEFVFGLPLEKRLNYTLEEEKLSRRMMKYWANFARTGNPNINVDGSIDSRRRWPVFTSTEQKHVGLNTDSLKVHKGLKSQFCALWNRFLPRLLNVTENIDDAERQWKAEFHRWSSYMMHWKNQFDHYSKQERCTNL

Q: For `O=c1cc(-c2ccc(O)c(O)c2)oc2cc(O[C@@H]3O[C@H](CO)[C@H](O)[C@H](O)[C@H]3O)cc(O)c12` [Luteolin-7-O-β-D-glucoside, luteolin-7-O-β-D-glucoside], which IC50 is on record?
A: 17.1 ± 1.02 µM

Q: `C[C@@H]1O[C@@H](O[C@H]2[C@H](Oc3cc(O)c4c(c3)O[C@H](c3ccc(O)c(O)c3)CC4=O)O[C@H](CO)[C@@H](O)[C@@H]2O)[C@H](O)[C@H](O)[C@H]1O` [Neoeriocitrin, neoeriocitrin] was tested. Which IC50 did it give?
A: 22.5 ± 1.25 µM

Q: Which IC50 does the source give for `C[C@@H]1O[C@@H](O[C@H]2[C@H](Oc3cc(O)c4c(c3)O[C@H](c3ccc(O)cc3)CC4=O)O[C@H](CO)[C@@H](O)[C@@H]2O)[C@H](O)[C@H](O)[C@H]1O` [Naringin, naringin] here?
A: 26.4 ± 1.17 µM

Q: `O=C1C[C@@H](c2ccc(O)c(O)c2)Oc2cc(O)cc(O)c21` [Eriodictyol, eriodictyol] was tested. Which IC50 did it give?
A: 7.19 ± 0.62 µM

Q: How did the IC50 turn out when `O=C1C[C@@H](c2ccc(O)cc2)Oc2cc(O)cc(O)c21` [Naringenin, naringenin] was run?
A: 3.81 ± 0.21 µM

Q: Which IC50 does the source give for `O=c1cc(-c2ccc(O)c(O)c2)oc2cc(O)cc(O)c12` [Luteolin, luteolin] here?
A: 17.3 ± 0.23 µM

Q: For `O=c1c(O[C@@H]2O[C@H](CO)[C@@H](O)[C@H](O)[C@H]2O)c(-c2ccc(O)cc2)oc2cc(O)cc(O)c12` [Astragalin, astragalin], which IC50 is on record?
A: 18.2 ± 2.33 µM
